Consider `O=[N+]([O-])c1cc(C(F)(F)F)cc([N+](=O)[O-])c1NN=C(C(F)(F)F)C(F)(F)F`, for which the logD (as a rule, lipophilicity at a set pH, counting ionised and neutral species) (pH 4.0) was found to be 3.6.

Turning to `CC(=O)Nc1ncc([N+](=O)[O-])s1`, the logP (usually the decadic logarithm of the partition coefficient of the neutral form, usually between octanol and water) was determined as 1.3.

Under “pH 1.0”, `CC(C)CC#N` returned a logD of 1.07.

`N#Cc1ccc(NN=C(C(F)(F)F)C(F)(F)F)c([N+](=O)[O-])c1` registered a logD (pH 4.0) of 3.4.

Regarding `O=C(NCCCO)C(F)(F)Cn1ccnc1[N+](=O)[O-]`, the logP is -0.64.

For the setting “pH 13.0”, `CC(C)NC(C)(C)C` displayed a logD of 1.56.

In turn, `O=C(COC(=O)c1ccccc1)NC1CCCCC1` displayed a lipophilicity (logP) of 2.81.

As to `CCNC(=O)c1ccco1`, the logP was determined as 0.61.

For the compound `CC(C)(C)C#N`, the logD (pH 1.0) amounted to 1.08.

For `CN1CCCNCC1`, for the setting “pH 13.0”, the logD was -0.4.

Take `ClC(Cl)C(Cl)(Cl)Cl`: the logP is 3.22.

For `COC(=O)c1cc(Cl)ccc1N`, the logP stood at 3.3.

Compound `S=C(N/N=C/c1ccco1)Nc1ccccc1` gave a logP of 3.13.

Take `Cc1cscn1`: the logP turned out to be 0.97.

With `Cc1cc(CCCCCCCOc2ccc(C3=NCCO3)cc2)on1`, where the note is “pH 7.4”, the pH-dependent lipophilicity (logD) is 4.79.

As to `Cc1nn(C)c(OCC(=O)c2ccccc2)c1C(=O)c1ccc(Cl)cc1Cl`, the logP was 3.69.

Turning to `OCCCO`, the logP is -1.04.

Consider `Cn1cccc1C=NNC(=O)Nc1ccccc1`, for which the logP is 2.71.

In turn, `O=C1Nc2ccccc2C1=O` showed a pH-dependent lipophilicity (logD) (pH 7.4) of 0.83.

As for `CC(=O)OC[C@H]1O[C@@H](n2ncc(=O)[nH]c2=O)[C@H](OC(C)=O)[C@@H]1OC(C)=O`, the logP was -0.2.

With `CCN(CCO)c1ccccc1`, under “pH 7.4”, the logD was 2.1.

`CC(=O)Nc1ncnc2c1ncn2C` had a logP of -0.41.

Regarding `Nc1ccc(Cl)c([N+](=O)[O-])c1`, the lipophilicity (logP) was 2.06.

In turn, `CC(C)c1ccccc1N` showed a logP of 2.12.

Take `CN(C)C(=O)c1ccccc1O`: the logP worked out at 0.44.

Where the note is “pH 7.4”, `Nc1ccc2c(n1)[nH]c1ccccc12` showed a log distribution coefficient (logD) of 2.6.

The compound `OC1CCCCCCCCCCC1` registered a logP of 3.75.

The compound `O=C(Nc1ccccc1)Nc1ccccc1` showed a logP of 3.

Compound `NC(=O)CCOc1ccccc1` returned a logP of 0.8.

For the compound `CCC(C)c1cc([N+](=O)[O-])cc(C(C)CC)c1O` (stereo not given), the logP was 4.8.

Compound `COC(=O)CCCCCC(=O)OC` had a logP of 1.38.

In the case of `O=c1c2ccccc2oc2ccccc12`, the logP came to 3.39.

For `BrC(Br)(Br)Br`, the logP was found to be 3.42.

In turn, `N#CCC(=O)c1ccccc1` displayed a logP of 0.97.

Take `ON=Cc1nnc(-c2ccccc2)o1`: the logP worked out at 2.03.

In turn, `CC1CN1C1=CC(=O)C(N2CC2C)=CC1=O` (stereo not given) came in with a logP of 1.07.

The compound `NC(=O)c1nc[nH]c1N` showed a logD (pH 9.0) of -1.1.

Turning to `CC(C)(CCC(=O)O)C(=O)O`, the logD (pH 1.0) turned out to be 0.67.

On to `O=C(O)Cc1ccc(N2Cc3ccccc3C2=O)cc1`, for which the logP came to 2.9.

For the compound `CC(C=CC1=C(C)CCCC1(C)C)=CC=CC(C)=CC(=O)O`, where the note is “pH 1.0”, the logD came out at 6.3.

With `CCCCn1cnc2c(NC(C)=O)ncnc21`, the logP stood at 0.55.

As for `Cc1c(COC(=O)[C@@H]2[C@H](/C=C(\Cl)C(F)(F)F)C2(C)C)cccc1-c1ccccc1`, the logP stood at 6.

As to `CC(C(=O)O)c1ccc(N2CC3CCCCC3C2=O)cc1` (stereo not given), the logP turned out to be 3.07.

In turn, `CNC(=N[N+](=O)[O-])NCCSCc1nc[nH]c1C` gave a logP of 0.13.

In the case of `O=C1CC(Sc2nc3ccccc3s2)N1` (stereo not given), the logP was 2.3.

Compound `Cc1c(Cl)cc(-c2ccc(=O)[nH]n2)cc1Cl` gave a logP of 3.2.

In the case of `Cc1ncc([N+](=O)[O-])n1CC(O)CCl` (stereo not given), under “pH 7.4”, the logD stood at 0.58.

`CCc1ccc([N+](=O)[O-])cc1` came in with a logD (pH 7.4) of 3.03.

The compound `CCC1OC(=O)C(C)C(OC2CC(C)(OC)C(O)C(C)O2)C(C)C(OC2OCC(O)C(N=[N+]=[N-])C2O)C(C)(O)CC(C)C(=O)CC(O)C1(C)O` (stereo not given) returned a logP of 1.76.

`CCc1nc(C)c([N+](=O)[O-])[nH]1` had a logD (pH 7.4) of 0.76.

`CCOC(=O)C(C(=O)OCC)=C(C(=O)OCC)C(=O)OCC` displayed a logP of 2.63.

The compound `CCOC(=O)CC(=O)c1ccccc1` returned a logP of 1.87.

On to `CN(C)/C=C/C#N`, for which the logP came to 0.47.

In the case of `CC(=O)C(C)(C)C`, the logP is 1.2.

`CCC(=O)N(C)C` displayed a logP of -0.11.

As for `COC(=O)Cn1c([N+](=O)[O-])cnc1C`, the logD (pH 7.4) worked out at 0.17.

The compound `CC(=O)OC(C)c1ccccc1` (stereo not given) yielded a logP of 2.3.

Consider `Fc1cccnc1`, for which the logP is 0.77.

As to `O=S(=O)(CCl)c1ccccc1`, the logP was determined as 1.24.

On to `CC(C)C(=O)C(C)C`, for which the logP is 1.86.

Consider `CCOC(=O)CCN(Cc1ccccc1)SN(C)C(=O)ON=C(C)SC`, for which the logP is 3.43.

Compound `Cc1cc([N+](=O)[O-])cc2c1NC(=O)CN=C2c1ccccc1` showed a log distribution coefficient (logD) (pH 7.4) of 2.33.

On to `N=C(N)c1ccccc1`, for which, for the setting “pH 13.0”, the logD worked out at 0.65.

`CN(C)/C=C/[N+](=O)[O-]` returned a logP of -0.8.

`CCN(CC)CCN`: under “pH 13.0”, the logD stood at 0.21.

For the compound `Cc1ccncn1`, the logP is 0.16.

On to `CCOC(=O)COC(=O)c1cc(Oc2ccc(C(F)(F)F)cc2Cl)ccc1[N+](=O)[O-]`, for which the logP stood at 3.65.

With `O/N=C/c1ccncc1`, the log partition coefficient (logP) worked out at 0.77.

`COc1ccc(C(C)=O)c(OC)c1OC` gave a lipophilicity (logP) of 1.63.

In the case of `CCCCOCN(C(=O)CCl)c1c(CC)cccc1CC`, the logP is 4.5.

`NC1CC1` yielded a logP of 0.07.

On to `Cn1nnnc1SCC1=C(C(=O)O)N2C(=O)[C@@H](NC(=O)[C@H](O)c3ccccc3)[C@H]2SC1`, for which the log distribution coefficient (logD) (pH 1.0) turned out to be 0.25.

In the case of `O=C(NC(F)(F)F)c1cccc2cccnc12`, the logD (pH 7.4) came out at 3.24.

In the case of `O=[N+]([O-])c1cc(C(F)(F)F)cc([N+](=O)[O-])c1NN=CC(F)(F)F`, the logD (pH 4.0) worked out at 2.8.

`NC(=O)Nc1nc(-c2ccccc2)no1` registered a logP of 1.76.

As to `COc1ccccc1C(C)=O`, the logP was 1.82.

For the compound `C1CCC(Cc2nnn[nH]2)CC1`, for the setting “pH 3.5”, the logD amounted to 1.59.

For the setting “pH 13.0”, `CCc1cc(Cc2cnc(N)nc2N)cc(CC)c1N` showed a logD of 1.82.

As to `CN(C)c1nc2c3cccnc3ccc2n1C`, for the setting “pH 7.4”, the logD was found to be 2.28.

`CC1NC(=O)C(CC(=O)N[C@@H](Cc2c[nH]c3ccccc23)C(=O)N[C@@H](Cc2ccccc2)C(=O)N(C)Cc2ccccc2)NC1=O` (stereo not given in full) yielded a logP of 3.18.

For the compound `O=C1C(Br)=C(N2CC2)C(=O)C(Br)=C1N1CC1`, the logP came out at 2.03.

Regarding `c1ccc(-c2cnc(-c3ccccc3)o2)cc1`, the logP is 4.67.

Take `CCOc1ccccc1OCC`: the logP worked out at 2.42.

For `O=c1n[n+]([O-])ccn1[C@@H]1O[C@H](CO)[C@@H](O)[C@H]1O`, the logP is -2.43.

`Cc1nc([N+](=O)[O-])cn1COCCS(C)(=O)=O`: the logD (pH 7.4) is -0.84.

Consider `CC(=O)Nc1ccc(S(N)(=O)=O)cc1`, for which, where the note is “pH 2.1”, the logD was 0.

For `ICCI`, the pH-dependent lipophilicity (logD) (pH 7.4) is 2.71.

For the compound `O=C(O)C1CC1`, the logD (pH 1.0) was found to be 0.63.

As to `CCN(CC)c1c([N+](=O)[O-])cc(C(F)(F)F)c(N)c1[N+](=O)[O-]`, the logP turned out to be 4.3.

`CC(C)(C)Cl` displayed a logP of 1.82.

`CC(=O)Oc1cccc2cccnc12` showed a logD (pH 7.4) of 2.03.

Consider `CC1CC(C(=O)O)=C(C(=O)O)C(C)C1` (stereo not given), for which the logD (pH 1.0) was 1.53.

With `O=C1C=CC(=O)C(Cl)=C1`, the logP was 0.84.

With `COc1ccc2c(c1)nc(N)n2C`, the lipophilicity (logP) stood at 0.87.

On to `CCCCCCCCCCCCCCc1cccc(N2C(N)=NC(N)=NC2(C)C)c1`, for which the lipophilicity (logP) worked out at 3.64.

Take `Cc1ccc(/C=N/O)cc1`: the logP turned out to be 2.4.

In turn, `Cc1ccc(/N=C/N(C)/C=N/c2ccc(C)cc2C)c(C)c1` came in with a logP of 5.5.

With `CC1COC(=O)O1` (stereo not given), the logP is -0.41.

The compound `Cc1cc(=O)cc(C)o1` showed a logP of 0.1.

The compound `CCC(=O)OC` came in with a logP of 0.82.

As for `C=CCOCC1CO1` (stereo not given), the logP is 0.46.

Compound `Cc1cc(=O)[nH]c(=O)[nH]1` displayed a logD (pH 7.4) of -0.77.

For the compound `O=C(CCn1ccnc1[N+](=O)[O-])NCCO`, the logP is -1.08.

Regarding `CSc1nc2nc(Cl)ccc2[nH]1`, the logP amounted to 2.39.

The compound `CN(C)CCNCCN` displayed a logD (pH 13.0) of -0.92.

`O=[N+]([O-])c1ccc(Nc2ccccc2)cc1`: the logP turned out to be 3.74.

Compound `CCN(C(=O)SCc1ccccc1)C(C)C(C)C` (stereo not given) registered a logP of 4.6.

For the compound `CCCCC(NC(Cc1ccccc1)C(=O)N1CCC(OCOC)CC1)C(=O)NC(CC1CCCCC1)C(O)CC(C(=O)NCCNC(N)=NC#N)C(C)C` (stereo not given), the logP was determined as 4.14.

For `N#CC(CCc1ccc(Cl)cc1)(Cn1cncn1)c1ccccc1` (stereo not given), the log partition coefficient (logP) was found to be 3.23.

Under “pH 7.0”, `COc1ccc2c(c1OC)-c1ccc(OC)c(=O)cc1[C@@H](NC(C)=O)CC2` yielded a pH-dependent lipophilicity (logD) of 1.02.

For `CC(C)(C)NCC(O)COCCCc1ccccc1` (stereo not given), the log partition coefficient (logP) worked out at 2.58.

Compound `O=C(O)Cc1csc(-c2ccc(Cl)cc2)n1` had a logP of 3.29.

With `CN1C(=O)CN=C(c2ccccc2F)c2c(F)cccc21`, the logD (pH 7.4) stood at 2.41.

Regarding `Cn1c(N)nc2ccccc21`, the logP worked out at 0.95.

Compound `FN(F)C(c1ccccc1)(c1ccccc1)c1ccccc1` yielded a logP of 3.73.

As to `CNc1ncnc2c1ncn2[C@H]1C[C@H](O)[C@@H](CO)O1`, the logD (pH 7.0) is -0.19.

On to `O=C(O)c1c2ccccc2cc2ccccc12`, for which the logD (pH 1.0) was 3.85.

`Cc1cccc(C)c1N` came in with a logP of 1.84.

Regarding `Nc1n[nH]c(Cc2ccc([N+](=O)[O-])o2)n1`, the logP worked out at 1.28.

Compound `CCC1=C(N2CC2)C(=O)C(C)=C(N2CC2)C1=O` displayed a logP of 1.35.

With `Nc1nc2cc(Cl)ccc2[nH]1`, the logP worked out at 1.88.

`CN1C(=O)CCC1=O` came in with a logP of -0.95.

In the case of `CN(C(=O)COc1nc2ccccc2s1)c1ccccc1`, the logP stood at 3.23.

In turn, `c1ccc(-c2csnn2)cc1` had a logP of 2.42.

In the case of `CS(C)(=O)=O`, the logP is -1.34.

As to `O=S(Cc1ccccc1)Cc1ccccc1`, the logP was 1.99.

The compound `Cc1ccccc1COC1CC2(C(C)C)CCC1(C)O2` (stereo not given) registered a logP of 3.83.

`CC#CC#CC`: the logP stood at 2.24.

Take `Cn1cccc1/C=N/NC(=S)Nc1ccccc1`: the logP stood at 3.64.

`O=C(O)c1ccccc1N1C(=O)CCC1=O` yielded a log distribution coefficient (logD) (pH 1.0) of 1.55.
